Key:
Assay in all cases: cells
Parameters in all cases: CellTiter-Glo 2.0 luminescence proliferation/viability assay, single agents, human tumour cell line panel
HPAF-II = settings: Homo sapiens, HPAF-II, 96 h; single agent; read-out: IC50 SMACm
Method in brief: (§1)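 Human tumour cell lines were seeded into assay plates and held at 37°C with 5% CO2 for twenty-four hours, then exposed in triplicate to rising concentrations of the SMAC mimetic, from 4.5 nM to 10 μM, with DMSO as control. After 96 h, viability was read as CellTiter-Glo2.0 luminescence to derive single-agent IC50 values.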

NCI-H2228 = settings: Homo sapiens, NCI-H2228, 96 h; single agent; read-out: IC50 SMACm
Method in brief: as §1

SNU283 = settings: 96 h; single agent; read-out: IC50 SMACm
Method in brief: as §1

KM12 = settings: Homo sapiens, KM12, 96 h; single agent; read-out: IC50 SMACm
Method in brief: as §1

NCI-H292 = settings: Homo sapiens, NCI-H292, 96 h; single agent; read-out: IC50 SMACm
Method in brief: as §1

NCI-H747 = settings: Homo sapiens, NCI-H747, 96 h; single agent; read-out: IC50 SMACm
Method in brief: as §1

Calu-3 = settings: Homo sapiens, Calu-3, 96 h; single agent; read-out: IC50 SMACm
Method in brief: as §1

C10 = settings: 96 h; single agent; read-out: IC50 SMACm
Method in brief: as §1

COLO-320-HSR = settings: Homo sapiens, COLO-320-HSR, 96 h; single agent; read-out: IC50 SMACm
Method in brief: as §1

HGC-27 = settings: Homo sapiens, HGC-27, 96 h; single agent; read-out: IC50 SMACm
Method in brief: as §1

CACO2 = settings: Homo sapiens, Caco-2, 96 h; single agent; read-out: IC50 SMACm
Method in brief: as §1

C32 = settings: Homo sapiens, C32, 96 h; single agent; read-out: IC50 SMACm
Method in brief: as §1

LIM2551 = settings: 96 h; single agent; read-out: IC50 SMACm
Method in brief: as §1

HT55 = settings: Homo sapiens, HT55, 96 h; single agent; read-out: IC50 SMACm
Method in brief: as §1

IC50 (NCI-H2228): 4.44 µM
IC50 (SNU283): 3.78 µM
IC50 (NCI-H292): 6.03 µM
IC50 (NCI-H747): 5.06 µM
IC50 (Calu-3): 1.46 µM
IC50 (COLO-320-HSR): 2.86 µM
IC50 (CACO2): 2.97 µM
Structure (SMILES): CN[C@@H](C)C(=O)Nc1ccc(-c2c(-c3cccnc3OC)nc3cc(C)ccn23)c(C#Cc2ccc3c(C)nccc3c2)n1 [SMACm, BI 891065]
IC50 (HPAF-II): 4.64 µM
IC50 (KM12): 7.46 µM
IC50 (C10): 6.47 µM
IC50 (HGC-27): 2.89 µM
IC50 (C32): 1.09 µM
IC50 (LIM2551): 2.25 µM
IC50 (HT55): 5 µM

Reference: article PMC12490239, “Combining BET inhibition with SMAC mimetics restricts tumor growth and triggers immune surveillance in preclinical cancer models” (Cell Reports Medicine, 2025)
